The supplement of paper PMC11061612

Legend:
AZD0156 = compound: CN(C)CCCOc1ccc(-c2ccc3ncc4c(c3c2)n(C2CCOCC2)c(=O)n4C)cn1 [AZD0156]; conditions: max 3 µM
Method in brief: (§1)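 Cancer cell lines in 1536-well plates (7.5 μl DMEM/F12 or RPMI, 10% FBS) were held 24 hours at 37°C and 5% CO2 and then dosed for 72 hours at a final DMSO of typically 0.2%. Viability was taken from CellTiter-Glo 2.0 luminescence, scaled between blank-well and DMSO-well means. Curves were fitted as two-parameter logistic models with a non-linear mixed effects model, from which the single-agent IC50 was taken.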

AZD7648 = compound: Cc1cc2ncnn2cc1Nc1ncc2c(n1)n(C1CCOCC1)c(=O)n2C [AZD7648]; conditions: max 10 µM
Method in brief: as §1

Palbociclib = compound: CC(=O)c1c(C)c2cnc(Nc3ccc(N4CCNCC4)cn3)nc2n(C2CCCC2)c1=O [Palbociclib]; conditions: max 10 µM
Method in brief: as §1

Trametinib = compound: CC(=O)Nc1cccc(-n2c(=O)n(C3CC3)c(=O)c3c(Nc4ccc(I)cc4F)n(C)c(=O)c(C)c32)c1 [Trametinib]; conditions: max 1 µM
Method in brief: as §1

Selumetinib = compound: Cn1cnc2c(F)c(Nc3ccc(Br)cc3Cl)c(C(=O)NOCCO)cc21 [Selumetinib]; conditions: max 10 µM
Method in brief: as §1

Gefitinib = compound: COc1cc2ncnc(Nc3ccc(F)c(Cl)c3)c2cc1OCCCN1CCOCC1 [Gefitinib]; conditions: max 10 µM
Method in brief: as §1

SG3199 = compound: CC1=CN2[C@@H](C1)C=NC3=CC(=C(C=C3C2=O)OC)OCCCCCOC4=C(C=C5C(=C4)N=C[C@@H]6CC(=CN6C5=O)C)OC [SG3199]; conditions: max 0.001 µM
Method in brief: as §1

Capivasertib = compound: C1CN(CCC1(C(=O)N[C@@H](CCO)C2=CC=C(C=C2)Cl)N)C3=NC=NC4=C3C=CN4 [Capivasertib]; conditions: max 10 µM
Method in brief: as §1

Lapatinib = compound: CS(=O)(=O)CCNCc1ccc(-c2ccc3ncnc(Nc4ccc(OCc5cccc(F)c5)c(Cl)c4)c3c2)o1 [Lapatinib]; conditions: max 10 µM
Method in brief: as §1

Dasatinib = compound: CC1=C(C(=CC=C1)Cl)NC(=O)C2=CN=C(S2)NC3=CC(=NC(=N3)C)N4CCN(CC4)CCO [Dasatinib]; conditions: max 2 µM
Method in brief: as §1

Taselisib = compound: Cc1nc(-c2cn3c(n2)-c2ccc(-c4cnn(C(C)(C)C(N)=O)c4)cc2OCC3)n(C(C)C)n1 [Taselisib]; conditions: max 10 µM
Method in brief: as §1

Alisertib = compound: COc1cc(Nc2ncc3c(n2)-c2ccc(Cl)cc2C(c2c(F)cccc2OC)=NC3)ccc1C(=O)O [Alisertib]; conditions: max 10 µM
Method in brief: as §1

AZD1390 = compound: CC(C)n1c(=O)n(C)c2cnc3cc(F)c(-c4ccc(OCCCN5CCCCC5)nc4)cc3c21 [AZD1390]; conditions: max 0.3 µM
Method in brief: as §1

Doxorubicin = compound: COc1cccc2c1C(=O)c1c(O)c3c(c(O)c1C2=O)C[C@@](O)(C(=O)CO)C[C@@H]3O[C@H]1C[C@H](N)[C@H](O)[C@H](C)O1 [Doxorubicin]; conditions: max 1 µM
Method in brief: as §1

AZD2811 = compound: CCN(CCO)CCCOc1ccc2c(Nc3cc(CC(=O)Nc4cccc(F)c4)[nH]n3)ncnc2c1 [AZD2811]; conditions: max 1 µM
Method in brief: as §1

Crizotinib = compound: C[C@@H](Oc1cc(-c2cnn(C3CCNCC3)c2)cnc1N)c1c(Cl)ccc(F)c1Cl [Crizotinib]; conditions: max 10 µM
Method in brief: as §1

AZD4320 = compound: CN(CC[C@H](CSC1=CC=CC=C1)NC2=C(C=C(C=C2)S(=O)(=O)NC(=O)C3=CC=C(C=C3)N4CCC(CC4)[C@H](C5=CC=CC=C5C6=CC=C(C=C6)Cl)O)S(=O)(=O)C(F)(F)F)CCO [AZD4320]; conditions: max 1 µM
Method in brief: as §1

AZD5991 = compound: Cc1c2c(nn1C)CSCc1cc(n(C)n1)CSc1cc(c3ccccc3c1)OCCCc1c(C(=O)O)n(C)c3c-2c(Cl)ccc13 [AZD5991]; conditions: max 1 µM
Method in brief: as §1

AZD8186 = compound: C[C@@H](Nc1cc(F)cc(F)c1)c1cc(C(=O)N(C)C)cc2c(=O)cc(N3CCOCC3)oc12 [AZD8186]; conditions: max 3 µM
Method in brief: as §1

Savolitinib = compound: C[C@@H](c1ccc2nccn2c1)n1nnc2ncc(-c3cnn(C)c3)nc21 [Savolitinib]; conditions: max 1 µM
Method in brief: as §1

Venetoclax = compound: CC1(C)CCC(CN2CCN(c3ccc(C(=O)NS(=O)(=O)c4ccc(NCC5CCOCC5)c([N+](=O)[O-])c4)c(Oc4cnc5[nH]ccc5c4)c3)CC2)=C(c2ccc(Cl)cc2)C1 [Venetoclax]; conditions: max 1 µM
Method in brief: as §1

SN-38 = compound: CCc1c2c(nc3ccc(O)cc13)-c1cc3c(c(=O)n1C2)COC(=O)[C@]3(O)CC [SN-38]; conditions: max 0.3 µM
Method in brief: as §1

AZD1775 = compound: C=CCn1c(=O)c2cnc(Nc3ccc(N4CCN(C)CC4)cc3)nc2n1-c1cccc(C(C)(C)O)n1 [AZD1775]; conditions: max 3 µM
Method in brief: as §1

AZD5153 = compound: COc1nnc2ccc(N3CCC(c4ccc(OCCN5CCN(C)C(=O)[C@H]5C)cc4)CC3)nn12 [AZD5153]; conditions: max 1 µM
Method in brief: as §1

Prexasertib = compound: COc1cccc(OCCCN)c1-c1cc(Nc2cnc(C#N)cn2)n[nH]1 [Prexasertib]; conditions: max 1 µM
Method in brief: as §1

Olaparib = compound: O=C(c1cc(Cc2n[nH]c(=O)c3ccccc23)ccc1F)N1CCN(C(=O)C2CC2)CC1 [Olaparib]; conditions: max 10 µM
Method in brief: as §1

AZD6738 = compound: C[C@@H]1COCCN1C2=NC(=NC(=C2)C3(CC3)[S@](=N)(=O)C)C4=C5C=CNC5=NC=C4 [AZD6738]; conditions: max 10 µM
Method in brief: as §1

Row | Cell Line | IC50, cell viability 72 h (AZD0156) [µM] | IC50, cell viability 72 h (AZD7648) [µM] | IC50, cell viability 72 h (Palbociclib) [µM] | IC50, cell viability 72 h (Trametinib) [µM] | IC50, cell viability 72 h (Selumetinib) [µM] | IC50, cell viability 72 h (Gefitinib) [µM] | IC50, cell viability 72 h (SG3199) [µM] | IC50, cell viability 72 h (Capivasertib) [µM] | IC50, cell viability 72 h (Lapatinib) [µM] | IC50, cell viability 72 h (Dasatinib) [µM] | IC50, cell viability 72 h (Taselisib) [µM] | IC50, cell viability 72 h (Alisertib) [µM] | IC50, cell viability 72 h (AZD1390) [µM] | IC50, cell viability 72 h (Doxorubicin) [µM] | IC50, cell viability 72 h (AZD2811) [µM] | IC50, cell viability 72 h (Crizotinib) [µM] | IC50, cell viability 72 h (AZD4320) [µM] | IC50, cell viability 72 h (AZD5991) [µM] | IC50, cell viability 72 h (AZD8186) [µM] | IC50, cell viability 72 h (Savolitinib) [µM] | IC50, cell viability 72 h (Venetoclax) [µM] | IC50, cell viability 72 h (SN-38) [µM] | IC50, cell viability 72 h (AZD1775) [µM] | IC50, cell viability 72 h (AZD5153) [µM] | IC50, cell viability 72 h (Prexasertib) [µM] | IC50, cell viability 72 h (Olaparib) [µM] | IC50, cell viability 72 h (AZD6738) [µM]
1 | KMS-12-BM (Plasma Cell Myeloma) | > 3 | > 10 | 3.66 | > 1 | > 10 | > 10 | > 0.001 | 9.31 | 7.08 | > 2 | 2.43 | 3.57 | > 0.3 | 0.891 | > 1 | 3.54 | 0.0173 | 0.0139 | > 3 | > 1 | 0.0164 | 0.0248 | 0.329 | 0.0134 | 0.017 | > 10 | –
2 | MOLM-13 (Acute Myeloid Leukemia) | > 3 | > 10 | 0.605 | 0.0242 | 4.04 | 4.32 | > 0.001 | 1.87 | > 10 | 0.932 | 6.31 | 0.0527 | > 0.3 | 0.04 | 0.0189 | 1.23 | 0.00677 | 0.0465 | > 3 | > 1 | 0.0235 | 0.00355 | 0.16 | 0.0289 | 0.00531 | 6.77 | 0.584
3 | NCI-H661 (Non-Small Cell Lung Carcinoma) | > 3 | > 10 | > 10 | > 1 | > 10 | > 10 | > 0.001 | > 10 | > 10 | > 2 | > 10 | > 10 | > 0.3 | > 1 | > 1 | > 10 | > 1 | > 1 | > 3 | > 1 | > 1 | > 0.3 | 0.765 | > 1 | 0.0468 | > 10 | > 10
4 | PC-3 (Prostate Carcinoma) | > 3 | > 10 | > 10 | > 1 | > 10 | > 10 | > 0.001 | > 10 | > 10 | > 2 | > 10 | > 10 | > 0.3 | > 1 | > 1 | > 10 | > 1 | > 1 | > 3 | > 1 | > 1 | 0.0827 | > 3 | > 1 | > 1 | > 10 | > 10
